# Measured values from ChEMBL document CHEMBL3507680, “University of Dundee, Gates Library screen for HepG2 cell viability”.
# Experiment: Human HepG2 cell viability assay in 384 well format
# Format: toxicity, cell-based
# Set-up: dose 125 nL, time 70.5 hour; concentration not given beside the values
# Settings: HepG2 cells, read-out: Inhibition
row,SMILES,cytotoxicity at 70.5 h [%]
1,CC(C)c1nnc2n1CCN(Cc1ccc3c(c1)OCCO3)C2,0.93
2,CCc1nc2c(c(N(C)Cc3nncn3CCOC)n1)CCNCC2,-8.26
3,CCCn1nccc1-c1nccnc1CC1CCN(C(C)=O)C1 (stereo unspecified),-2.05
4,C1CN(c2nc(C3CC3)ns2)CCS1,-1.41
5,Cn1ccc(NC(=O)NC2CCCN(c3ccccc3Cl)C2=O)n1 (stereo unspecified),-0.238
6,CC1(C)CC(N(Cc2ccccc2)Cc2cccnc2)CC(C)(C)N1,30.7
7,CC(C)c1ccc(S(=O)(=O)N2CSCC2C(=O)NCC(F)(F)F)cc1 (stereo unspecified),-7.38
8,Cc1cc(C)c2[nH]c(=O)c(CN3CCCC(O)(CO)C3)cc2c1 (stereo unspecified),-13.5
9,N#Cc1ccccc1N1CCCN(C(=O)NCc2cc[nH]n2)CC1,-6.85
10,Cc1nc(C)n(C2CCCN(C(=O)c3nc(C)n4ccccc34)C2)n1 (stereo unspecified),-9.2
11,O=C([C@H]1COC[C@H]2CN(C3CCCC3)C[C@H]21)N1CCOCC1,-9.13
12,CC(Cn1cncn1)NC(=O)N1CC2(CCCC2)c2ccccc21 (stereo unspecified),-1.39
13,O=c1c2cccc(C(F)(F)F)c2ncn1CCN1CCNCC1,-1.89
14,O=C(OC1CCC1)c1ncccc1OCC(F)(F)F,15.8
15,CC(C)c1cc(C(=O)NCCc2nc(-c3ccncc3)n[nH]2)[nH]n1,-5.69
16,O=C(NCCc1nnc[nH]1)Nc1cccc(SC(F)F)c1,-9.47
17,O=C(c1ccoc1)N1CCCn2cnc(COCC3CC3)c2C1,-10.8
18,O=C(O)[C@@H]1CN(C2CCCC2)C[C@H]1C1CC1,-8.02
19,Cc1cccc(CN2CC3(CCNCC3)OCC2=O)n1,0.469

row,SMILES,cytotoxicity at 70.5 h [%]
1,FC(F)Oc1ccc(CNCc2cc(Br)c3c(c2)OCO3)cc1,-6.89
2,CSc1ccccc1C(=O)N1C[C@H]2CC[C@@H]1CN(C(=O)C1CCC1)C2,-4.19
3,CCCc1noc(CCC(=O)N2CCCC2c2noc(C3CC3)n2)n1 (stereo unspecified),-16.9
4,O=C(O)C1(Cc2ccccc2Cl)CCN(c2ncnc3[nH]ccc23)CC1,10.8
5,Cc1ccc(C(=O)N2CCC3(CC(N(C)c4ccncn4)C3)C2)cn1 (stereo unspecified),-2.36
6,CN1CCN(C[C@H]2OC[C@@H]3CCN(Cc4ccsc4)C[C@@H]32)CC1,-0.843
7,CC(C)CN1CCCC(c2nc(O)c3cc(F)ccc3n2)C1 (stereo unspecified),1.3
8,Cc1cncnc1C1CCN(CC2CC2)CC1,19.8
9,O=C1CC[C@@H]2[C@@H](CCN2Cc2ccncc2)N1c1ccccc1,4.02
10,CC(O)CN1CCN(C(=O)c2cccc(CC#N)c2)CC1 (stereo unspecified),12.7
11,CC(c1ccccc1F)N(CC(N)=O)C1CC1 (stereo unspecified),-4.03
12,CCOCCOc1ccccc1C(=O)N1CCCC(c2ncc[nH]2)C1 (stereo unspecified),-5
13,CCc1nc2c(c(NC3CC3)n1)CCN(C(=O)N1CCN(C)CC1)CC2,-19.1
14,O=C(NC1CCCN(c2ncccn2)C1)c1ccoc1 (stereo unspecified),-1.17
15,CCOCCN1CCN(CC(O)c2ccc(C(F)(F)F)cc2)CC1 (stereo unspecified),-0.521
16,CCc1nn(C)c(Cl)c1CN1CCCC2(CC1)CN(C)C(=O)O2 (stereo unspecified),-14.9
17,COc1ccc(NC2CCN(C3CC3)C2=O)cn1 (stereo unspecified),5.36
18,O=C(c1ccsc1)N1C[C@@H]2CCN(C(=O)c3cccc(F)c3)[C@@H]2C1,-11.5
19,Cc1cc(C)n(CC2CCCN2C(=O)c2c[nH]c(=O)c(Cl)c2)n1 (stereo unspecified),-11.8

row,SMILES,cytotoxicity at 70.5 h [%]
1,OC(COCc1cccs1)CN1CCc2c(ncn2C2CC2)C1 (stereo unspecified),-2.16
2,CNC(=O)c1ncn2c1CN(CCC(C)C)S(=O)(=O)c1ccccc1-2,-9.5
3,COCCN(C)c1ccc(NCc2cccnc2)nc1,5.65
4,CCC(C)(NCC(=O)OC)c1nc(C)cs1 (stereo unspecified),-1.12
5,Cc1nnc(N2C[C@H]3OCC[C@H]3[C@H](C(=O)NCC3CC3)C2)s1,1.29
6,CC/N=c1\c(NC(=O)C(C)(C)C)c(O)oc2ccccc12,22.9
7,CC(C)Cn1cnc(S(=O)(=O)Nc2cccnc2-n2cccn2)c1,-1.98
8,CCc1nnsc1C(=O)N(C)Cc1ccc(C)o1,-0.808
9,CN(CC1(O)CCCN(c2ccccn2)C1)C(=O)CC1CCOCC1 (stereo unspecified),-9.69
10,Cc1nc(C2CCCN2C(=O)c2cc3c(s2)CCC3)no1 (stereo unspecified),-6.34
11,Cc1nn(C)c(N(C)C)c1CNCC(O)c1ccccc1 (stereo unspecified),0.0769
12,CN1CCN(CCc2ncnn2-c2ccc3c(c2)OCO3)CC1,22
13,CCC1COCCN1C(=O)NCc1nccn1CCc1ccccc1 (stereo unspecified),-5.72
14,CCCn1ncc(CN(Cc2cccnc2)Cc2ccsc2)c1C,16.8
15,CN(C)c1cc(CNC(=O)Nc2ccc(N3CCCC3)nc2)ccn1,1.53
16,CCCn1[nH]cc/c1=N\C(=O)CN1CCOC(Cn2cc(C)cn2)C1 (stereo unspecified),-14.6
17,Cc1nc(Nc2nccs2)cc(C2CN(C(C)C)C2)n1,-5.94
18,Cc1ccoc1C(=O)N1CCCC(CNS(C)(=O)=O)C1 (stereo unspecified),18
